Assay results reported in patent publication US9790541B2, “Methods and compositions for labeling nucleic acids” (President and Fellows of Harvard College, priority 2005, dated 2017).

What was measured:
HeLa cells [1] = assay: Labeling of HeLa cells with EdU, fixed/permeabilized, stained with Xrhodamine-azide; assay type: cell-based; conditions: 1 μM EdU; cell in anaphase; labeling pulse shorter than DNA replication time
Procedure: Ethynyl-dU (EdU) was used in tissue culture media (DMEM complemented with penicillin, streptomycin, and fetal calf serum (FCS)) ranging from 10 nM to 1 μM depending on the length of the labeling pulse. For example, if cells to be labeled were synchronized in the S phase, 100 nM to 1 μM of EdU was used for 1 to 2 hours. After labeling, the cells were washed 3 or 4 times with PBS and then tissue culture media was added.
Staining Solution: 100 mM Tris pH 8.5 (from 2 M stock in water), 0.5 to 1 mM CuSO4 (from 1 M stock in water), 0.5 to 1 μM fluorophore-azide (from approximately 10-100 mM stock in DMSO), and water (as required) were mixed together. Ascorbic acid (from a […] stock in water) was then added to this solution to a final concentration of 50-100 mM, and the resulting staining solution is mixed thoroughly using a vortex.
Cells can be fixed by any suitable method, e.g., cells can be fixed by aldehyde fixation (formaldehyde or glutaraldehyde), with or without permeabilization. After fixation, the cells were washed in buffer with or without non-ionic detergent (0.2-0.5% Triton X100). Before staining, cells were rinsed with buffer without detergent (PBS or TBS). The cells were then incubated in the presence of the staining solution for at least 30 minutes. Overnight staining is preferably performed in a cold room.

HeLa cells [2] = assay: Staining of EdU-labeled live cells with TMR-propyl-azide, time-lapse fluorescence microscopy; assay type: cell-based; conditions: 200 nM TMR-propyl-azide, 37° C., FIG. 7
Procedure: Ascorbic acid (from a […] stock in water) was then added to this solution to a final concentration of 50 mM, and the resulting staining solution is mixed thoroughly.
Washes with methanol or ethanol may be performed to obtain low background
To facilitate live microscopic imaging, EdU-labeled cells were plated in coverslip chambers which were mounted on the heated stage (37° C.) of an inverted Nikon TE200)U microscope equipped for wide-field fluorescence microscopy as well as spinning-disk confocal fluorescence microscopy (Yokogama spinning disk confocal head from Perkin-Elmer). […] The cells were imaged by time-lapse fluorescent microscopy (one frame every 15 seconds) to detect the TMR signal accumulating in the nuclei of the EdU-labeled cells.

[3] = test system: mouse intestine and brain; assay: In vivo labeling with EdU, organ sections stained with Xrhodamine-azide and Hoechst; parameters: species or system mice; conditions: 200 micrograms EdU intraperitoneally, organs harvested three days later
Procedure: BLAB/C mice were injected with 200 micrograms of EdU intraperitoneally. Three days later, organs were harvested, fixed, embedded in paraffin and sectioned. The sections were then de-waxed and stained with Xrhadomine-azide for 5 minutes, stained with Hoechst, washed and then mounted.

HeLa cells [4] = assay: Tracing a single sister chromatid: EdU pulse, chase of two cell cycles, Alexa568-azide staining; assay type: cell-based; conditions: EdU pulse during DNA synthesis, Alexa568-azide stain
Source text: The purpose of the experiment reported herein was to label only one DNA molecule of the two that form a chromosome. That was accomplished by pulsing HeLa cells with EdU during DNA synthesis followed by a chase lasting two cell cycles, as depicted on FIG. 12. […] EdU allowed very nice resolution imaging of chromosomes in cells as shown by FIG. 13.

C#Cc1cn([C@H]2C[C@H](O)[C@@H](CO)O2)c(=O)[nH]c1=O [EdU, 5-ethynyl-2′ deoxyuracil]
DNA labeling by EdU in HeLa cells (HeLa cells [1]): only the DNA replicating during the pulse was labeled
EdU detection over time (DNA staining intensity) (HeLa cells [2]): complete within minutes
EdU-labeled cells in intestine section ([3]; FIG. 8): cells with red nuclei are the cells which incorporated EdU
EdU-labeled cells in brain section ([3]; FIG. 10): sole EdU-labeled cell
DNA molecules of a chromosome labeled, first mitosis after labeling (HeLa cells [4]): both DNA molecules were labeled
DNA molecules of a chromosome labeled, second mitosis (HeLa cells [4]): only one DNA molecule was labeled
